In US7368232B2, “High-throughput assay for virus entry and drug screening” (priority 2003, dated 2008):

Assays:
[1] = tested on: VSV-G pseudotyped virus containing env-luc1; assay type: cell-based, vesicular stomatitis virus
[2] = tested on: VSV-G pseudotyped virus; assay type: cell-based, vesicular stomatitis virus
[3] = tested on: Friend MLV containing env-luc1; assay type: cell-based, Friend murine leukemia virus
[4] = tested on: Ebola env pseudotyped virus; assay type: cell-based
[5] = tested on: Rabies env pseudotyped virus; assay type: cell-based
[6] = tested on: VSV env pseudotyped virus; assay type: cell-based, Vesicular Stomatitis Virus
[7] = tested on: MLV env pseudotyped virus; assay type: cell-based, murine leukemia virus

SMILES | decrease of luciferase entry signal [1] [fold] | effect on luciferase entry signal [1] | reduction of infection (β-galactosidase infection assay) [2] [fold] | effect on luciferase entry signal [3] | effect on entry of Ebola virus env pseudotyped particles [4] | effect on luciferase activities in the viral entry assay [5] | effect on luciferase activities in the viral entry assay [6] | effect on luciferase activities in the viral entry assay [7]
CCN(CC)CCCC(C)Nc1ccnc2cc(Cl)ccc12 (stereo not shown) [chloroquine] | 7 | inhibited the signal | 20 | only weakly affected | – | – | – | –
CO/C1=C\C(C)=C\[C@@H](C)[C@@H](O)[C@@H](C)C/C(C)=C/C=C/[C@H](OC)[C@@H]([C@@H](C)[C@@H](O)[C@H](C)[C@@]2(O)C[C@@H](O)[C@H](C)[C@@H](C(C)C)O2)OC1=O [bafilomycin A1] | – | inhibited the signal | 100 | only weakly affected | significantly inhibited | completely inhibit | completely inhibit | little effect
Cl.N [ammonium chloride] | – | inhibited the signal | – | only weakly affected | significantly inhibited | completely inhibit | completely inhibit | –
